Test results reported in patent US9487570B2, “Glucagon like peptide analogs, composition, and method of use” (BETTA PHARMACEUTICALS CO., LTD, priority 2010, dated 2016).

What was measured:
[1] = from U.S. Pat. No. 5,118,666; cited from earlier work
DPP-IV = DPP-IV (Homo sapiens, UniProt P27487); assay: Stability to DPP-IV in vitro; conditions: isolated DPP-IV enzyme, pH 7.4
Experimental: DPP-IV (5 mU, 900 μL) was added, and the solutions were incubated at 37 ° C. At the indicated time points, 100 μL was removed from the reaction mixture, and reactions were terminated by the addition of 5 μL of 10% (v/v) TFA. Each sample was analyzed by MALDI-TOF MS and RP-HPLC as described.

[2] = test system: cloned human GLP-1 receptor; assay: cAMP formation in a cell line expressing the cloned human GLP-1 receptor; conditions: 2 h at 37 °C, cAMP by scintillation proximity assay; read-out: Cell based cAMP ED50

Chain of DPP-IV (P27487 whole entry, species assumed): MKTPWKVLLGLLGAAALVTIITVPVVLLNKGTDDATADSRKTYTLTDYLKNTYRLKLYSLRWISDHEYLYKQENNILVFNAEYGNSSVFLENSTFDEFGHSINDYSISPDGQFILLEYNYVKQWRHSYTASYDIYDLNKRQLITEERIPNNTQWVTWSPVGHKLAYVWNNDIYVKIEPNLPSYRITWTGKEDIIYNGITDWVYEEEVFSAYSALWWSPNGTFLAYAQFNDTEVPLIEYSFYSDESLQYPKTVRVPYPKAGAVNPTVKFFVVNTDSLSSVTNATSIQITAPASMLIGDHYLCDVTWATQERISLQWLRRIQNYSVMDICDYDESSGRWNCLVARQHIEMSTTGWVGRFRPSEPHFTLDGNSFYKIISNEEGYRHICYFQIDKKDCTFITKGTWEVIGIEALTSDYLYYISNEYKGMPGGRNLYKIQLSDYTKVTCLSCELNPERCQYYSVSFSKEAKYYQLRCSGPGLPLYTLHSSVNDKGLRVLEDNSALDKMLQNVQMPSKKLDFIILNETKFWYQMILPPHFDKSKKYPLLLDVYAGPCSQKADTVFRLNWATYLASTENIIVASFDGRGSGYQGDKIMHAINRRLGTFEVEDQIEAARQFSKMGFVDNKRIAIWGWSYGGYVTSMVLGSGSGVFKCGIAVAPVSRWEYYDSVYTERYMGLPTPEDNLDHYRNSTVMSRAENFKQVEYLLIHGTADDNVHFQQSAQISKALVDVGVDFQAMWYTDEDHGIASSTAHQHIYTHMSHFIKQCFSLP

Compound	biological half-life [1] [minutes]	remaining at 1 h, 0.5 nmol/L (DPP-IV) [%]	remaining at 24 h, 0.5 nmol/L (DPP-IV) [%]	EC50 [2] [nM]
GLP-1(7-37)OH	3 to 5	–	–	–
CCCCCCCCCCCCCCCC(=O)N[C@@H](CCC(=O)NCCCC[C@H](NC(=O)[C@H](C)NC(=O)[C@H](C)NC(=O)[C@H](CCC(N)=O)NC(=O)CNC(=O)[C@H](CCC(=O)O)NC(=O)[C@H](CC(C)C)NC(=O)[C@H](Cc1ccc(O)cc1)NC(=O)[C@H](CO)NC(=O)[C@H](CO)NC(=O)[C@@H](NC(=O)[C@H](CC(=O)O)NC(=O)[C@H](CO)NC(=O)[C@@H](NC(=O)[C@H](Cc1ccccc1)NC(=O)[C@@H](NC(=O)CNC(=O)[C@H](CCC(=O)O)N[C@@H]([C@H](C)NC(=O)[C@@H](N)Cc1c[nH]cn1)C(F)(F)F)[C@@H](C)O)[C@@H](C)O)C(C)C)C(=O)N[C@@H](CCC(=O)O)C(=O)N[C@@H](Cc1ccccc1)C(=O)N[C@H](C(=O)N[C@@H](C)C(=O)N[C@@H](Cc1c[nH]c2ccccc12)C(=O)N[C@@H](CC(C)C)C(=O)N[C@H](C(=O)N[C@@H](CCCNC(=N)N)C(=O)NCC(=O)N[C@@H](CCCNC(=N)N)C(=O)NCC(=O)O)C(C)C)[C@@H](C)CC)C(=O)O [N-ε^26-[γ-L-glutamyl(N-α-hexadecanoyl)]-[Q-linker-d8,Arg34]GLP-1-(7-37)-peptide]	–	98	98	–
CCCCCCCCCCCCCCCC(=O)N[C@@H](CCC(=O)NCCCC[C@H](NC(=O)[C@H](C)NC(=O)[C@H](C)NC(=O)[C@H](CCC(N)=O)NC(=O)CNC(=O)[C@H](CCC(=O)O)NC(=O)[C@H](CC(C)C)NC(=O)[C@H](Cc1ccc(O)cc1)NC(=O)[C@H](CO)NC(=O)[C@H](CO)NC(=O)[C@@H](NC(=O)[C@H](CC(=O)O)NC(=O)[C@H](CO)NC(=O)[C@@H](NC(=O)[C@H](Cc1ccccc1)NC(=O)[C@@H](NC(=O)CNC(=O)[C@@H](/C=C/[C@H](C)NC(=O)[C@@H](N)Cc1c[nH]cn1)CCC(=O)O)[C@@H](C)O)[C@@H](C)O)C(C)C)C(=O)N[C@@H](CCC(=O)O)C(=O)N[C@@H](Cc1ccccc1)C(=O)N[C@H](C(=O)N[C@@H](C)C(=O)N[C@@H](Cc1c[nH]c2ccccc12)C(=O)N[C@@H](CC(C)C)C(=O)N[C@H](C(=O)N[C@@H](CCCNC(=N)N)C(=O)NCC(=O)N[C@@H](CCCNC(=N)N)C(=O)NCC(=O)O)C(C)C)[C@@H](C)CC)C(=O)O [N-ε^26-[γ-L-glutamyl(N-α-hexadecanoyl)]-[Q-linker-a8-9,Arg34]GLP-1-(7-37)-peptide]	–	98	98	–
CC[C@H](C)[C@H](NC(=O)[C@H](Cc1ccccc1)NC(=O)[C@H](CCC(=O)O)NC(=O)[C@H](CCCCN)NC(=O)[C@H](C)NC(=O)[C@H](C)NC(=O)[C@H](CCC(N)=O)NC(=O)CNC(=O)[C@H](CCC(=O)O)NC(=O)[C@H](CC(C)C)NC(=O)[C@H](Cc1ccc(O)cc1)NC(=O)[C@H](CO)NC(=O)[C@H](CO)NC(=O)[C@@H](NC(=O)[C@H](CC(=O)O)NC(=O)[C@H](CO)NC(=O)[C@@H](NC(=O)[C@H](Cc1ccccc1)NC(=O)[C@@H](NC(=O)CNC(=O)[C@H](CCC(=O)O)NC(=O)[C@H](C)NC(=O)[C@@H](N)Cc1c[nH]cn1)[C@@H](C)O)[C@@H](C)O)C(C)C)C(=O)N[C@@H](C)C(=O)N[C@@H](Cc1c[nH]c2ccccc12)C(=O)N[C@@H](CC(C)C)C(=O)N[C@H](C(=O)N[C@@H](CCCCN)C(=O)NCC(=O)N[C@@H](CCCNC(=N)N)C(N)=O)C(C)C [GLP-1, reference compound]	–	–	–	0.06
